Read-outs that look alike come from different tables or passages of the source.
Molecular target: T1, Human Recombinant Matriptase 2 (Homo sapiens, UniProt Q8IU80)
T1 construct: purchased Enzo Life Sciences (an in-house preparation was also used) ALX-201-752-1
T1 sequence (Q8IU80 1-811): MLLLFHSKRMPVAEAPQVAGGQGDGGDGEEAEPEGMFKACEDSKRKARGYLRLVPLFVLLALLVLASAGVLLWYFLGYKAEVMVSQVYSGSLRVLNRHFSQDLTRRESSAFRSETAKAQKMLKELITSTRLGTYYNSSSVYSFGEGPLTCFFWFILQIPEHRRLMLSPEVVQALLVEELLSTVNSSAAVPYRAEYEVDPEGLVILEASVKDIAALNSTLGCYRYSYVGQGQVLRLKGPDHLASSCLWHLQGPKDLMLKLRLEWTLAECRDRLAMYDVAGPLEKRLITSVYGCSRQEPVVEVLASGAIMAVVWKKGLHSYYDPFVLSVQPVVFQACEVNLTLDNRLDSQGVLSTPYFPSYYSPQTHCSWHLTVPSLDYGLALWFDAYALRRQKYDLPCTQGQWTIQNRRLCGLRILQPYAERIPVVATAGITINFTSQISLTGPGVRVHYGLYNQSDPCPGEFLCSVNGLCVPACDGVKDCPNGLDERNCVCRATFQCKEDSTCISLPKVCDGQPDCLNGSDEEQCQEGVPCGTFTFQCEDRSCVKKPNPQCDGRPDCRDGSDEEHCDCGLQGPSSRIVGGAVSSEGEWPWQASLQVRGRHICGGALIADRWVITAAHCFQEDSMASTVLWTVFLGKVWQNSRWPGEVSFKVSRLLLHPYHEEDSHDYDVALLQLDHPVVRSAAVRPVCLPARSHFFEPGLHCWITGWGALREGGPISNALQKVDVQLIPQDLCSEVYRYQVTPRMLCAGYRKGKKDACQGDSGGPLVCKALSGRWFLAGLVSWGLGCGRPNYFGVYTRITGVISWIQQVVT
Assay: Matriptase 2 fluorescence based inhibition assay, Method A (100 mM TRIS pH 9, 1 mg/mL BSA)
Type: biochemical
Settings: read-out: Mar-2 % inhibition at 1 uM
Procedure, shortened: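 Enzyme (7 nM commercial or 15 nM in-house) preincubated 30 min with compound in 100 mM TRIS pH 9, 1 mg/mL BSA, 1% DMSO at 25° C. Boc-Gln-Ala-Arg-AMC substrate at 100 μM; fluorescence (Ex 360/Em 480 nm) read 60 min later. Screened at 1 and 10 μM; IC50 from variable-slope sigmoidal fit.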

Row | Compound | inhibition at 1 µM (1 uM, Assay Used A) [%] | inhibition at 1 µM (at 1 uM, Assay Used = A) [%]
1 | N=C(N)c1ccc2c(N)c(C(=O)N[C@H]3CC[C@H](N)CC3)n(CCc3ccc(C(F)(F)F)cc3)c2c1 [Compound I-33, 3-Amino-N-((1r,4r)-4-aminocyclohexyl)-6-carbamimidoyl-1-(4-(trifluoromethyl)-phenethyl)-1H-indole-2-carboxamide] | 0 to 25 | 
2 | N=C(N)c1ccc2cc(C(=O)Nc3cc(F)ccc3F)n(Cc3ccc(C(N)=O)cc3)c2c1 [Compound I-115] | 0 to 25 | 
3 | COc1ccc(CCn2c(C(=O)N[C@H]3CC[C@H](N)CC3)cc3ccc(C(=N)N)cc32)cc1 [Compound I-32] | 25 to 50 | 
4 | N=C(N)c1ccc2cc(C(=O)Nc3ccc(F)c(F)c3)n(Cc3ccc(C(N)=O)cc3)c2c1 [Compound I-87] | 0 to 25 | 
5 | N=C(N)c1ccc2cc(C(=O)N3CCC(F)(F)C3)n(Cc3ccc(NC(=O)CCN)cc3)c2c1 [Compound I-376] |  | 0 to 25
6 | CC(C)COC(=O)NC(=N)c1ccc2cc(C(=O)Nc3cccc(N4CCCC4)c3)n(Cc3ccc(C(N)=O)cc3)c2c1 [Compound I-147] | 0 to 25 | 
7 | N=C(N)c1ccc2cc(C(=O)NC3CCC(F)(F)CC3)n(Cc3ccc(NC(=O)CCN)cc3)c2c1 [I- s263] |  | 0 to 25
8 | N=C(N)c1ccc2cc(C(=O)N3CCC4CCCCC4C3)n(CCS(=O)(=O)c3ccccc3)c2c1 (stereo not shown) [Compound I-339] |  | 0 to 25
9 | N=C(N)c1ccc2cc(C(=O)Nc3ccnc(N4CCCC4)c3)n(Cc3ccc(C(N)=O)cc3)c2c1 [Compound I-178] | 0 to 25 | 
10 | N=C(N)c1ccc2cc(C(=O)NCC3CCCCC3)n(Cc3ccc(C(N)=O)cc3Cl)c2c1 [Compound I-228, 6-Carbamimidoyl-1-(2-Chloro-4-carbamoyl-benzyl)-N-(cyclohexylmethyl)-1H-indole-2-carboxamide] |  | 0 to 25
11 | N=C(N)c1ccc2cc(C(=O)N[C@H](CO)c3ccccc3)n(Cc3ccc(C(N)=O)cc3)c2c1 [Compound I-86] | 0 to 25 | 
12 | N=C(N)c1ccc2c(N)c(C(=O)N[C@H]3CC[C@H](NC(=O)O)CC3)n(Cc3ccc(Oc4ccccc4)cc3)c2c1 [Compound I-253, ((1r,4r)-4-(3-Amino-6-carbamimidoyl-1-(4-phenoxybenzyl)-1H-indole-2-carboxamido)-cyclohexyl) carbamic Acid] |  | 0 to 25
13 | CCOC(=O)Nc1c(C(=O)N[C@H]2CC[C@H](N)CC2)n(Cc2ccc(Oc3ccccc3)cc2)c2cc(C(=N)NO)ccc12 [Compound I-254, Ethyl (2-(((1r,4r)-4-aminocyclohexyl)carbamoyl)-6-((Z)—N′-hydroxycarbamimidoyl)-1-(4-phenoxybenzyl)-1H-indol-3-yl)carbamate] |  | 25 to 50
14 | N=C(N)c1ccc2cc(C(=O)Nc3cccc(-n4ccccc4=O)c3)n(Cc3ccc(C(N)=O)cc3)c2c1 [Compound I-153] | 25 to 50 | 
15 | N=C(N)c1ccc2cc(C(=O)Nc3cccc(-n4ccc(C(F)(F)F)n4)c3)n(Cc3ccc(C(N)=O)cc3)c2c1 [Compound I-166] | 0 to 25 | 
16 | CN1CCC(N(C)C(=O)c2cc3ccc(C(=N)N)cc3n2Cc2ccc(C(N)=O)cc2)C1 (stereo not shown) [Compound I-103, 6-Carbamimidoyl-1-(4-carbamoylbenzyl)-N-methyl-N-(1-methylpyrrolidin-3-yl)-1H-indole-2-carboxamide] | 0 to 25 | 
17 | CC(C)CCn1c(C(=O)N2CC[C@H](F)C2)cc2ccc(C(=N)N)cc21 [Compound I-272] |  | 0 to 25
18 | C[C@@H](NC(=O)c1cc2ccc(C(=N)N)cc2n1Cc1ccc(C(N)=O)cc1)c1ccc(F)c(Cl)c1 [Compound I-113] | 0 to 25 | 
19 | CC1CCC(NC(=O)c2c(Cl)c3ccc(C(=N)N)cc3n2Cc2ccc(C(N)=O)cc2)CC1 (stereo not shown) [Compound I-214] |  | 0 to 25
20 | N=C(N)c1ccc2cc(C(=O)Nc3cncc(F)c3)n(Cc3ccc(C(N)=O)cc3)c2c1 [Compound I-172] | 0 to 25 | 

Row | Compound | inhibition at 1 µM (1 uM, Assay Used A) [%] | inhibition at 1 µM (at 1 uM, Assay Used = A) [%]
21 | CN(C)CC(=O)O/N=C(\N)c1ccc2cc(C(=O)Nc3cccc(N4CCCC4)c3)n(Cc3ccc(C(N)=O)cc3)c2c1 [Compound I-135, 1-(4-Carbamoylbenzyl)-6-(N′-(2-(dimethylamino)acetoxy)carbamimidoyl)-N-(3-(pyrrolidin-1-yl)phenyl)-1H-indole-2-carboxamide] | 0 to 25 | 
22 | N=C(N)c1ccc2cc(C(=O)N[C@H]3CC[C@H](N)CC3)n(CCCc3ccccc3)c2c1 [Compound I-34] | 25 to 50 | 
23 | N=C(N)c1ccc2cc(C(=O)N3CCC(CCN)CC3)n(Cc3ccc(C(F)(F)F)cc3)c2c1 [Compound I-278] |  | 0 to 25
24 | N=C(N)c1ccc2cc(C(=O)N3CCc4ccccc4C3)n(Cc3cccc(NC(=O)CCN)c3)c2c1 [Compound I-365] |  | 0 to 25
25 | N=C(N)c1ccc2cc(C(=O)Nc3cc(F)c(F)c(F)c3)n(Cc3ccc(C(N)=O)cc3)c2c1 [Compound I-89] | 0 to 25 | 
26 | N=C(N)c1ccc2cc(C(=O)NCC3CCCCC3)n(Cc3ccc(B(O)O)cc3)c2c1 [Compound I-231] |  | 0 to 25
27 | N=C(N)c1ccc2cc(C(=O)NCc3cc(F)cc(F)c3)n(Cc3ccc(C(N)=O)cc3)c2c1 [Compound I-80] | 0 to 25 | 
28 | N=C(N)c1ccc2cc(C(=O)N3CCC(F)(F)CC3)n(Cc3ccc(C(N)=O)cc3)c2c1 [Compound I-327] |  | 0 to 25
29 | NCCCC(=O)Nc1cccc(Cn2c(C(=O)N3CCC(CCN)CC3)cc3ccc(/C(N)=N/O)cc32)c1 [Compound I-382] |  | 0 to 25
30 | N=C(N)c1ccc2cc(C(=O)N[C@H]3CC[C@H](N)CC3)n(Cc3ccc(C(F)(F)F)cc3)c2c1 [Compound I-4] | 25 to 50 | 
31 | N=C(N)c1ccc2cc(C(=O)N3CCC(F)(F)C3)n(Cc3ccc(C(F)(F)F)cc3)c2c1 [Compound I-285] |  | 0 to 25
32 | N=C(N)c1ccc2c(Cl)c(C(=O)N3CCC(F)(F)C3)n(Cc3ccc(C(N)=O)cc3)c2c1 [Compound I-354] |  | 0 to 25
33 | N=C(N)c1ccc2cc(C(=O)N[C@H]3CC[C@H](N)CC3)n(Cc3cccc(NC(=O)C4CNC4)c3)c2c1 [Compound I-258, N-((1r,4r)-4-Aminocyclohexyl)-1-(3-(azetidine-3-carboxamido)benzyl)-6-carbamimidoyl-1H-indole-2-carboxamide] |  | 50 to 75
34 | N=C(N)c1ccc2cc(C(=O)N3CCC(F)(F)CC3)n(Cc3ccc(-c4ccccc4)cc3)c2c1 [Compound I-306] |  | 0 to 25
35 | N=C(N)c1ccc2cc(C(=O)N[C@@H]3CC=CCC3)n(CCS(=O)(=O)c3ccccc3)c2c1 [Compound I-47] | 0 to 25 | 
36 | CCNC(=O)c1ccc(Cn2c(C(=O)N3CCC(F)CC3)cc3ccc(C(=N)N)cc32)cc1 [Compound I-390] |  | 0 to 25
37 | N=C(N)c1ccc2cc(C(=O)NCc3cccc(N4CCCC4)c3)n(Cc3ccc(C(N)=O)cc3)c2c1 [Compound I-100] | 25 to 50 | 
38 | N=C(N)c1ccc2c(N)c(C(=O)NCC3CCCCC3)n(CCS(=O)(=O)c3ccccc3)c2c1 [Compound I-58, 3-Amino-6-carbamimidoyl-N-(cyclohexylmethyl)-1-(2-(phenylsulfonyl)ethyl)-1H-indole-2-carboxamide] | 0 to 25 | 
39 | Cc1ccc(NC(=O)c2cc3ccc(C(=N)N)cc3n2Cc2ccc(C(N)=O)cc2)nc1 [Compound I-171] | 0 to 25 | 
40 | N=C(N)c1ccc2cc(C(=O)NCC3CCCCC3)n(CCS(=O)(=O)c3ccccc3)c2c1 [Compound I-49] | 0 to 25 | 

From US12428415B2, “Matriptase 2 inhibitors and uses thereof” (Disc Medicine, Inc., priority 2018, dated 2025)
